According to US20230218663A1, “COMPOSITIONS AND METHODS FOR TREATING A SARS-COV-2 INFECTION” (priority 2020, published 2023):
Where two headings read alike, the source gives them in different places.

How the values were obtained:
[1] = system: VeroE6 cells; experiment: Cell viability assay (CellTiterGlo), VeroE6; format: cell-based, African green monkey; details: 48 hrs incubation; concentration based on metal content; read-out: CC50 VeroE6
Protocol: (§1) The CellTiterGlo® luminescent assay (Promega Corporation, Madison, Wis., USA) was performed to detect the cytotoxicity of the selected compounds as previously described^39. Briefly, VeroE6 cells (4×10^4 cells per well) and Caco2 cells (4×10^4 cells per well) were incubated with different concentrations of the individual compound in 96-well plates for 48 hrs, followed by the addition of the substrate and measurement of luminance 10 min later. Ridaura and Au(PEt3)Cl were dissolved in DMSO, and the final percentage of DMSO was kept at 1% in culture medium.

[2] = system: SARS-CoV-2; format: cell-based
[3] = system: SARS-CoV-2; experiment: Viral load reduction assay in VeroE6 cells; format: cell-based
Protocol: Viral load reduction assay was performed on VeroE6 and Caco2 cells, as described previously with modifications^41. Supernatant samples from the infected cells (0.1 MOI) were harvested at 48 hours post-infection (hpi) for qRT-PCR analysis of virus replication. Briefly, 100 μL of viral supernatant were lyzed with 400 μL of AVL buffer and then extracted for total RNA with the QIAamp viral RNA mini kit (Qiagen, Hilden, Germany). Real-time one-step qRT-PCR was used for quantitation of SARS-CoV-2 viral load using the QuantiNova Probe RT-PCR kit (Qiagen) with a LightCycler 480 Real-Time PCR System (Roche) as previously described^15. Each […] mixture contained 10 μL of 2×QuantiNova Probe RT-PCR Master Mix, 1.2 μL of RNase-free water, 0.2 μL of QuantiNova Probe RT-Mix, 1.6 μL each of 10 μM forward and reverse primer, 0.4 μL of 10 μM probe, and 5 μL of extracted RNA as the template. Reactions were incubated at 45° C. for 10 min for reverse transcription, 95° C. for 5 min for denaturation, followed by 45 cycles of 95° C. for 5 s and 55° C. for 30 s. Signal detection and measurement were taken in each cycle after the annealing step. The cycling profile ended with a cooling step at 40° C. for 30 s. The primers and probe sequences are against the RNA-dependent RNA polymerase/Helicase (RdRP/Hel) gene region of SARS-Cov-2 previously described^42.
Cell culture supernatants were collected at 48 hour-post-infection (hpi) for viral RNA extraction and quantitative reverse transcription-polymerase chain reaction (qRT-PCR) as previously described with modifications(13, 14). The primers and probe sequences were against the RNA-dependent RNA polymerase/Helicase (RdRP/Hel) gene region of SARS-CoV-2: forward primer: 5′-[…]-3′ (SEQ ID NO:6); reverse primer: 5′-[…]-3′(SEQ ID NO:7); specific probe: 5′-[…]-IABkFQ-3′(SEQ ID NO:8). The viral load reduction assay experiments were performed in triplicate and repeated twice for confirmation.

[4] = system: SARS-CoV-2; format: cell-based; details: read-out: EC50 VeroE6
[5] = system: SARS-CoV-2; details: Caco-2
[6] = system: Caco2 cells; experiment: Cell viability assay (CellTiterGlo), Caco2; format: cell-based, human; details: 48 hrs incubation; concentration based on metal content; read-out: CC50 Caco2
Protocol: as §1

[7] = Ex vivo everted gut sac model; format: in vitro ADME, rat
Protocol: Ex vivo everted gut sac model was performed according to a modified method (10, 11). For the preparation of everted gut sac, small intestines were rapidly isolated from rats right after their sacrificing followed by being washed several times with 0.9% saline. Duodenum was segmented of the intestine (˜4 cm) in oxygenated medium [Krebs-Henseleit solution (pH 7.4, 1.25 mM NaHCO3, pH 7.4, 5.9 mM NaCl, 23.5 μM KCl, 60 μM MgSO4, 62.5 μM CaCl2, 60 μM KH2PO4, 550 μM glucose)], gently everted, washed, slid onto a glass rod and fastened with braided silk. Duodenum was clamped at one end and filled with an aliquot of 1 mL fresh oxygenated medium, and subsequently sealed with a second clamp, resulting an everted gut sac with approximately 3 cm in length using braided silk sutures.
The everted gut sacs (n=3 per group) were dialyzed in oxygenated medium supplemented with CBS (200 μM), CBS (200 μM)+1NAC (200 μM), CBS (200 μM)+3NAC (600 μM), CBS (200 μM)+10NAC (2 mM), respectively, at 37° C. Aliquots of 50 μL samples were withdrawn from the gut sacs at different time intervals (15, 30, 45, 60 min) and equal volume of oxygenated medium was supplemented in gut sacs immediately. The length and width of each intestinal segment was measured after the final sample was taken. Bismuth content transported into the gut sacs was measured by ICP-MS as mentioned above.

[8] = system: Caco-2 cell monolayer
[9] = cited from earlier work
[10] = Chemical stability of bismuth drugs at different pH
[11] = system: SARS-CoV-2; format: cell-based; remark: listed apart in the source

Colloidal Bismuth Subcitrate [De-Nol]
CC50 [1]: 3.254 ± 0.021 mM
effect on virus replication, drug maintained after virus entry (post-entry) [2]: functioned at post-entry stages
maximal viral load reduction in VeroE6 cell culture supernatant [3]: ~4 logs
maximal viral load reduction in the VeroE6 cell lysate [3]: ~2 logs
EC50 [4]: 0.0046 ± 0.0004 mM
maximal viral load reduction in Caco2 cell culture supernatant [5]: ~4 logs
maximal viral load reduction in the Caco2 cell lysate [5]: ~3 logs
CC50 [6]: 3.74 ± 0.125 mM
cumulative bismuth permeated within 60 min ([7]; CBS 200 μM with 1 mol eq. NAC): 30.21 ng/cm2
cumulative bismuth permeated within 60 min ([7]; CBS 200 μM with 3 mol eq. NAC): 64.98 ng/cm2
cumulative bismuth permeated within 60 min ([7]; CBS 200 μM with 10 mol eq. NAC): 98.61 ng/cm2
cumulative bismuth permeated within 60 min ([7]; CBS 200 μM, without NAC): 14.68 ng/cm2
bismuth intestinal permeation within 60 min [8]: moderately elevated
optimum pH for precipitation ([9]; gastric juice): 3.5
solubility ([9]; water): soluble in water
bismuth found in the supernatant ([10]; pH 1.2, after 1 hour, without NAC): less than 10%
bismuth remaining in the supernatant ([10]; pH 1.2, in the presence of 3 mol eq. NAC): approximately 100%
bismuth remaining in the supernatant ([10]; pH 1.2, in the presence of 10 mol eq. NAC): approximately 100%
hydrolysis at pH 9.2 in the presence of NAC ([10]; pH 9.2): prevent hydrolysis
cumulative permeated bismuth (PBS iso-pH 1.2, in the presence of 10 mol eq. NAC): 24.91 ng/cm2
cumulative permeated bismuth (PBS iso-pH 1.2, without NAC): 16.95 ng/cm2
viral NP antigen-positive cells [11]: 37.25%
